Results on two compounds are retold here after BindingDB's records for doi:10.1021/jm300847w (Amgen, 2012).

The IC50 is the concentration that inhibits the measured activity by half. Read a high IC50 as lower potency.

This assay can be described thus: Inhibition of PI3Kdelta in B-cells by proliferation assay.

`Cc1cccc2nc(-c3ccccc3Cl)c(Cn3nc(C#N)c4c(N)ncnc43)nc12` gave an IC50 of 2 nM.
With `C[C@H](Nc1ncnc2nc[nH]c12)c1cc2cccc(Cl)c2nc1-c1cscn1` the figure was 0.5 nM.
